BindingDB's records for doi:10.1074/jbc.M809430200 (The Scripps Research Institute, 2009)

Key:
[1] = biological target: Mitogen-activated protein kinase 10 (Homo sapiens, UniProt P53779); experiment: Fluorescence Assay; conditions: pH 7; 22 °C
Experimental: (§1) Homogeneous time-resolved fluorescence assay is an enzyme inhibition studies that were performed in 384-well polystyrene homogeneous time-resolved fluorescence plates (grainier).

[2] = biological target: Mitogen-activated protein kinase 8 (Homo sapiens, UniProt P45983); experiment: Fluorescence Assay; conditions: pH 7; 22 °C
Experimental: as §1

[3] = biological target: Mitogen-activated protein kinase 14 (p38α) (Homo sapiens) (UniProt Q16539); experiment: Homogeneous time-resolved fluorescence assay is an enzyme inhibition studies that were performed in 384-well polystyrene homogeneous time-resolved fluorescence plates (grainier).; conditions: pH 7

Sequence of Mitogen-activated protein kinase 10 (P53779 whole entry): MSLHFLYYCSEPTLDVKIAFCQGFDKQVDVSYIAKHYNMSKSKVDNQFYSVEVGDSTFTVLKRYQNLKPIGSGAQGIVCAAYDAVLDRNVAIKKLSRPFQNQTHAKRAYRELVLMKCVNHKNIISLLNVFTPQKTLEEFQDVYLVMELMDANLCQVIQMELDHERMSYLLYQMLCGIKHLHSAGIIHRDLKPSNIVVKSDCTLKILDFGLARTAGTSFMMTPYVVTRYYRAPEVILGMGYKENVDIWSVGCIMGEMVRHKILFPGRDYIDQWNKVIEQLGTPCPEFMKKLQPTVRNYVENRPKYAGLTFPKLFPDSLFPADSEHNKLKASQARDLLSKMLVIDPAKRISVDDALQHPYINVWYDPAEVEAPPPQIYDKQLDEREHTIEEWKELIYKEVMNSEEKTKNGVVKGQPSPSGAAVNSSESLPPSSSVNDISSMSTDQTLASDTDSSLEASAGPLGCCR
Sequence of Mitogen-activated protein kinase 8 (P45983 whole entry): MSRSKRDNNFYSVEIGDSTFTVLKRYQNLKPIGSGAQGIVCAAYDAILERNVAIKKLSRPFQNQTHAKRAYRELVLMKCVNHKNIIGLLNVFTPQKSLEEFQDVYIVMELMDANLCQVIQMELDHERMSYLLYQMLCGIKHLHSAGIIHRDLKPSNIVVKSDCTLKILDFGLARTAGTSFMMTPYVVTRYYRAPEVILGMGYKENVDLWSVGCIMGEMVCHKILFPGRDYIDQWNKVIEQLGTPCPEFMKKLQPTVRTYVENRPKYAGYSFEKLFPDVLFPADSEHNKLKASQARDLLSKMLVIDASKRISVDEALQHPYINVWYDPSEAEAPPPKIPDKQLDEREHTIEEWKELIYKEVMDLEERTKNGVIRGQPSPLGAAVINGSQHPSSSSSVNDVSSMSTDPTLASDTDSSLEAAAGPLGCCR

**Q.** `COc1cc(NC(=O)c2cccc(-n3cc(NC(=O)Nc4ccccc4)cn3)c2)cc(OC)c1OC` [Aminopyrazole inhibitor, 3451] was tested. Which IC50 [1] did it give?
**A.** 25 nM

**Q.** And the IC50 [2]?
**A.** 400 nM

**Q.** And the IC50 [3]?
**A.** 3700 nM

**Q.** What does the source list for `COc1cc(NC(=O)c2cccc(-n3cc(NC(=O)Nc4ccccc4Cl)cn3)c2)cc(OC)c1OC` [Aminopyrazole inhibitor, 3528]?
**A.** IC50 [1]: 23 nM; IC50 [2]: 560 nM; IC50 [3]: > 20000 nM

**Q.** `COc1cc(NC(=O)c2cccc(-n3cc(NC(=O)Nc4cccc(C)c4)cn3)c2)cc(OC)c1OC` [Aminopyrazole inhibitor, 3576] was tested. Which IC50 [1] did it give?
**A.** 7 nM

**Q.** What about the IC50 [2] of the same compound?
**A.** 170 nM

**Q.** What about the IC50 [3] of the same compound?
**A.** > 20000 nM

**Q.** How did the IC50 [1] turn out when `COc1cc(NC(=O)c2cccc(-n3cc(NC(=O)Nc4ccc(Cl)cc4)cn3)c2)cc(OC)c1OC` [Aminopyrazole inhibitor, 3583] was run?
**A.** 480 nM

**Q.** What does the source list for `Cc1cccc(NC(=O)Nc2cnn(-c3cccc(C(=O)NCCN4CCOCC4)c3)c2)c1` [Aminopyrazole inhibitor, 4018]?
**A.** IC50 [1]: 2100 nM; IC50 [2]: > 20000 nM; IC50 [3]: > 20000 nM

**Q.** How did the IC50 [1] turn out when `O=C(Nc1cnn(-c2cccc(C(=O)NCCCN3CCOCC3)c2)c1)Nc1ccccc1Cl` [Aminopyrazole inhibitor, 4276] was run?
**A.** 350 nM

**Q.** And the IC50 [3]?
**A.** > 20000 nM

**Q.** `Cc1cncc(NC(=O)c2cccc(-n3cc(NC(=O)Nc4ccccc4Cl)cn3)c2)c1` [Aminopyrazole inhibitor, 4326] was tested. Which IC50 [1] did it give?
**A.** 55 nM

**Q.** And the IC50 [2]?
**A.** 1400 nM

**Q.** What about the IC50 [3] of the same compound?
**A.** > 20000 nM

**Q.** Which results are given for `Cc1cncc(NC(=O)c2cc(N(C)C)cc(-n3cc(NC(=O)Nc4ccccc4Cl)cn3)c2)c1` [Aminopyrazole inhibitor, 4642]?
**A.** IC50 [1]: 2200 nM; IC50 [2]: > 20000 nM; IC50 [3]: > 20000 nM

**Q.** For `Cc1cncc(NC(=O)c2cc(N3CCOCC3)cc(-n3cc(NC(=O)Nc4ccccc4Cl)cn3)c2)c1` [Aminopyrazole inhibitor, 4643], which IC50 [1] is on record?
**A.** 1500 nM

**Q.** What about the IC50 [2] of the same compound?
**A.** > 20000 nM

**Q.** What about the IC50 [3] of the same compound?
**A.** > 20000 nM
